Test results published in US10738024B2, “Compounds for treatment of angiogenesis-mediated diseases” (Indiana University Research and Technology Corporation, priority 2013, dated 2020).

Experiments:
Type in all cases: cell-based, human
[1] = system: Akt; assay: Phosphorylation of Akt in HRECs upon VEGF stimulation (immunoblot); details: 100 ng/ml VEGF, 20 minutes
Procedure: (§1) HRECs were seeded at 10^5 cells/well in a 6-well plate and after 24 hours of incubation at 37° C., cells were serum starved in 0.1% serum-EBM-2 for 8 hours. Cells were then treated with the indicated concentrations of SH-11052 (2) for one hour before the addition of 100 ng/ml VEGF. After 20 minutes, cells were lysed in NP-40 Lysis buffer containing 25 mM HEPES pH 7.4, 1% NP-40, 150 mM NaCl, 10% glycerol, 1 mM sodium orthovanadate, 10 mM sodium fluoride, 1 mM sodium pyrophosphate, 1 mM PMSF, 2.5 mg/ml aprotinin, 1 mM pepstatin, and 1 mM leupeptin. Equal amounts of proteins (80 μg), as measured by a Bradford assay, were run on 10% SDS-PAGE, transferred to PVDF membrane, blocked with 5% BSA in TBS-0.05% Tween-20 and immunoblotted with the indicated primary antibodies (1:1000 in 1% BSA in TBS-0.05% Tween-20) overnight at 4° C. After three washes in TBS-0.05% Tween-20, HRP-conjugated secondary antibodies (1:5000 in 5% BSA in TBS-0.05% Tween-20) were applied for one hour at room temperature. After three washes, the protein bands were detected and densitized using ECL Prime western blot detection reagent (GE Life Sciences, Piscataway, N.J., USA) and an XRS gel documentation system running Quantity One software (Bio-Rad). Target protein band intensity was normalized to housekeeping gene α-tubulin. […]

[2] = system: IL8; assay: qRT-PCR of NF-κB target gene IL8 in TNF-α challenged cells; details: 10 ng/ml TNF-α for 24 hours; listed as SH-11052 (2)
Procedure: (§2) Similarly, the mRNA expression of the pro-inflammatory molecules IL8, PTGS2 (COX2) and CCL2 (MCP-1), inducible by NF-κB, were analyzed in the presence of SH-11052 (2). Cells (10^5 per well) were seeded in a 6-well plate and incubated for 24 hours at 37° C. and 5% CO2. The cells were then starved in 0.1% serum-EBM-2 for 12 hours followed by incubation for an hour in the presence of different concentrations of SH-11052 (2). The cells were then challenged for 24 hours with 10 ng/ml TNF-α. Following incubation, cells were lysed and RNA was isolated using Trizol reagent (Life Technologies). cDNA was prepared from 80 ng total RNA using random primers and M-MuLV Reverse Transcriptase (New England Biolabs, Ipswich, Mass., USA). RT-PCR reactions were set up using the TaqMan Fast Gene Expression Assay Kit according to the manufacturer's instructions. FAM-labeled TaqMan probes for PTGS2 (Hs00153133_m1), CCL2 (Hs00234140_m1), IL8 (Hs00174103_m1), and control, TBP (Hs99999910_m1), genes were used to monitor the expression levels of these genes. The qRT-PCR plate was read in a ViiATM 7 qPCR system (Life Technologies) and the data were analyzed using the ΔΔCt method. The expression levels of genes were normalized to TBP gene expression and calibrated to the DMSO-treated, unstimulated sample.

[3] = system: VCAM-1; assay: VCAM-1 protein expression in HRECs exposed to TNF-α (immunofluorescence); details: 10 ng/ml TNF-α for 24 hours
Procedure: Cells (25,000 per coverslip) were seeded onto coverslips coated with Attachment Factor (Cell Systems, Kirkland, Wash., USA) and incubated at 37° C. and 5% CO2 for 24 hours in EGM-2. The cells were starved in 0.1% serum-EBM-2 for 8 hours followed by incubation in 0.1% serum-EBM-2 medium for an hour in the presence of different concentrations of SH-11052 (2). The cells were challenged with 10 ng/ml of TNF-α for 24 hours and fixed with 4% paraformaldehyde solution for 20 minutes at room temperature. The coverslips were quickly washed three times in TBS and blocked using 10% block solution (DAKO) prepared in 1×TBS-1% BSA buffer. The coverslips were incubated with the antibody against VCAM-1 (1:100 dilution), a cell adhesion molecule specifically expressed on endothelial cells, whose expression is induced by NF-κB upon TNF-α signaling, for 16 hours at 4° C. followed by three washes in TBS-0.1% BSA buffer. Dylight 555-conjugated secondary antibody (1:200) was used to probe for the VCAM-1 antibody. After three washes in TBS-0.1% BSA, the coverslips were mounted using Vectashield mounting medium containing DAPI nuclear stain. The cells were imaged using an LSM 700 confocal microscope. The image was analyzed for fluorescence signal intensity using MetaMorph software (Molecular Devices, Sunnyvale, Calif., USA).

[4] = system: IκB-α; assay: TNF-α-mediated degradation of IκB-α in HRECs (immunoblot); details: 20 ng/ml TNF-α, 20 minutes
Procedure: as §1, with “of 20” for “of 100”, “ng/ml of TNF-α.” for “ng/ml VEGF.”

[5] = system: CCL2 (MCP-1); assay: qRT-PCR of NF-κB target gene CCL2 in TNF-α challenged cells; details: 10 ng/ml TNF-α for 24 hours; listed as SH-11052 (2)
Procedure: as §2

[6] = system: VEGFR2; assay: Phosphorylation of VEGFR2 in HRECs upon VEGF stimulation (immunoblot); details: 100 ng/ml VEGF, 20 minutes
Procedure: as §1

[7] = system: HRECs; assay: Migration of HRECs

Row | Structure (SMILES) | activation (phosphorylation) of Akt [1] | mRNA expression of IL8 [2] | VCAM-1 protein expression [3] | TNF-α-mediated degradation of IκB-α [4] | mRNA expression of CCL2 (MCP-1) [5] | phosphorylation of VEGFR2 [6] | migration of HRECs [7]
1 | COc1ccc(CC2COc3cc(OC)c(O)c(O)c3C2=O)cc1O (single isomer, unassigned) [Compound 2] | inhibited activation | decreased the expression | significant dose-dependent decrease | significantly decreased in a dose dependent manner | decreased the expression | did not inhibit phosphorylation | 
2 | COc1ccc(CC2COc3cc(OC)c(OC)c(OC)c3C2=O)cc1OC(=O)[C@H](Cc1ccccc1)NC(=O)OC(C)(C)C (stereo partly drawn) [Compound 6c, (2S)-2-methoxy-5-((5,6,7-trimethoxy-4-oxochroman-3-yl)methyl)phenyl 2-((tert-butoxycarbonyl)amino)-3-phenylpropanoate] |  |  |  |  |  |  | blocked migration
